Assay results: PubChem BioAssay (NCI)
Values joined by “and” are separate entries in the source; they are usually repeats but may differ in a detail not shown here. Equal entries are not always repeated.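 Protocol summary: plate cells (96-well), add compound at 5 concentrations, incubate 48 h, interpolate endpoints linearly. Abbreviation: GI50, concentration required for 50% inhibition of growth. TGI is the concentration that stops growth completely.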

Legend:
Assay in all cases: NCI tumour cell line growth inhibition, 48 h
786-0 renal = tested on: 786-0 renal
A498 renal = tested on: A498 renal
A549 NSCLC = tested on: A549 NSCLC
ACHN renal = tested on: ACHN renal
BT-549 breast = tested on: BT-549 breast
CAKI-1 renal = tested on: CAKI-1 renal
CCRF-CEM leukemia = tested on: CCRF-CEM leukemia
COLO 205 colon = tested on: COLO 205 colon
DU-145 prostate = tested on: DU-145 prostate
EKVX NSCLC = tested on: EKVX NSCLC
HCC-2998 colon = tested on: HCC-2998 colon
HCT-116 colon = tested on: HCT-116 colon
HCT-15 colon = tested on: HCT-15 colon
HOP-62 NSCLC = tested on: HOP-62 NSCLC
HOP-92 NSCLC = tested on: HOP-92 NSCLC
HS 578T breast = tested on: HS 578T breast
HT29 colon = tested on: HT29 colon
IGROV1 ovarian = tested on: IGROV1 ovarian
K-562 leukemia = tested on: K-562 leukemia
KM12 colon = tested on: KM12 colon
LOX IMVI melanoma = tested on: LOX IMVI melanoma
M14 melanoma = tested on: M14 melanoma
MALME-3M melanoma = tested on: MALME-3M melanoma
MCF7 breast = tested on: MCF7 breast
MDA-MB-231 breast = tested on: MDA-MB-231 breast
MDA-MB-435 = tested on: MDA-MB-435
MOLT-4 leukemia = tested on: MOLT-4 leukemia
NCI-H226 lung = tested on: NCI-H226 lung
NCI-H23 lung = tested on: NCI-H23 lung
NCI-H460 lung = tested on: NCI-H460 lung
NCI/ADR-RES ovarian = tested on: NCI/ADR-RES ovarian
OVCAR-3 ovarian = tested on: OVCAR-3 ovarian
OVCAR-4 ovarian = tested on: OVCAR-4 ovarian
OVCAR-5 ovarian = tested on: OVCAR-5 ovarian
OVCAR-8 ovarian = tested on: OVCAR-8 ovarian
PC-3 prostate = tested on: PC-3 prostate
RPMI-8226 leukemia = tested on: RPMI-8226 leukemia
RXF 393 renal = tested on: RXF 393 renal
SF-268 CNS = tested on: SF-268 CNS
SF-295 CNS = tested on: SF-295 CNS
SF-539 CNS = tested on: SF-539 CNS
SK-MEL-28 melanoma = tested on: SK-MEL-28 melanoma
SK-MEL-5 melanoma = tested on: SK-MEL-5 melanoma
SN12C renal = tested on: SN12C renal
SNB-19 CNS = tested on: SNB-19 CNS
SNB-75 CNS = tested on: SNB-75 CNS
SR leukemia = tested on: SR leukemia
SW-620 colon = tested on: SW-620 colon
T-47D breast = tested on: T-47D breast
TK-10 renal = tested on: TK-10 renal
U251 CNS = tested on: U251 CNS
UACC-257 melanoma = tested on: UACC-257 melanoma
UACC-62 melanoma = tested on: UACC-62 melanoma
UO-31 renal = tested on: UO-31 renal
HL-60(TB) leukemia = tested on: HL-60(TB) leukemia
NCI-H522 lung = tested on: NCI-H522 lung
SK-MEL-2 melanoma = tested on: SK-MEL-2 melanoma
SK-OV-3 ovarian = tested on: SK-OV-3 ovarian

O=C(N[C@@H](Cc1ccccc1)B(O)O)[C@H](Cc1cccc2ccccc12)NC(=O)N1CCOCC1
TGI (786-0 renal): 0.271 µM and 0.12 µM
TGI (A498 renal): 0.212 µM
GI50 (A549 NSCLC): 0.0123 µM
TGI (A549 NSCLC): 0.47 µM
TGI (ACHN renal): 24.6 µM
TGI (BT-549 breast): 0.00335 µM
GI50 (CAKI-1 renal): 0.0228 µM
TGI (CAKI-1 renal): 0.048 µM and 0.18 µM
TGI (CCRF-CEM leukemia): 0.0022 µM
TGI (COLO 205 colon): 0.197 µM and 0.233 µM
TGI (DU-145 prostate): 0.403 µM and 0.527 µM
GI50 (EKVX NSCLC): 0.129 µM
TGI (EKVX NSCLC): 0.923 µM and 3.66 µM
TGI (HCC-2998 colon): 0.00339 µM
TGI (HCT-116 colon): 0.00208 µM
TGI (HCT-15 colon): 0.61 µM and 0.405 µM
TGI (HOP-62 NSCLC): 0.0316 µM and 0.0488 µM
TGI (HOP-92 NSCLC): 0.00744 µM
TGI (HS 578T breast): 0.213 µM
TGI (HT29 colon): 0.0105 µM and 0.0106 µM
TGI (IGROV1 ovarian): 0.07 µM and 0.0754 µM
TGI (K-562 leukemia): 0.0852 µM
TGI (KM12 colon): 0.0041 µM and 0.0149 µM
TGI (LOX IMVI melanoma): 0.00343 µM
TGI (M14 melanoma): 0.00405 µM
TGI (MALME-3M melanoma): 0.0103 µM and 0.0226 µM
TGI (MCF7 breast): 0.352 µM
TGI (MDA-MB-231 breast): 0.00745 µM and 0.0232 µM
TGI (MDA-MB-435): 0.00103 µM
TGI (MOLT-4 leukemia): 0.00366 µM and 0.0107 µM
TGI (NCI-H226 lung): 0.00164 µM
TGI (NCI-H23 lung): 0.00899 µM and 0.0101 µM
GI50 (NCI-H460 lung): 0.0172 µM
TGI (NCI-H460 lung): 0.106 µM and 0.0579 µM
GI50 (NCI/ADR-RES ovarian): 7.31 µM
TGI (NCI/ADR-RES ovarian): > 100 µM
TGI (OVCAR-3 ovarian): 0.00255 µM and 0.0196 µM
TGI (OVCAR-4 ovarian): 0.0301 µM and 0.204 µM
TGI (OVCAR-5 ovarian): 0.0155 µM
TGI (OVCAR-8 ovarian): 0.122 µM
TGI (PC-3 prostate): 0.106 µM and 0.134 µM
TGI (RPMI-8226 leukemia): 0.00414 µM
TGI (RXF 393 renal): 0.00379 µM
TGI (SF-268 CNS): 0.00654 µM and 0.058 µM
TGI (SF-295 CNS): 0.0304 µM and 0.0239 µM
TGI (SF-539 CNS): 0.000769 µM
TGI (SK-MEL-28 melanoma): 0.00367 µM
TGI (SK-MEL-5 melanoma): 0.00392 µM and 0.014 µM
TGI (SN12C renal): 0.0226 µM and 0.0268 µM
TGI (SNB-19 CNS): 0.671 µM
TGI (SNB-75 CNS): 0.0558 µM
TGI (SR leukemia): 0.0126 µM
TGI (SW-620 colon): 0.0125 µM and 0.0101 µM
TGI (T-47D breast): 0.00368 µM
TGI (TK-10 renal): 0.154 µM and 0.413 µM
TGI (U251 CNS): 0.132 µM and 0.174 µM
TGI (UACC-257 melanoma): 0.0065 µM and 0.0397 µM
TGI (UACC-62 melanoma): 0.0119 µM and 0.0391 µM
GI50 (UO-31 renal): 0.123 µM
TGI (UO-31 renal): 0.482 µM

COc1ccc2c(c1)c(-c1ccc(-c3cn(C)c4ccc(OC)cc34)o1)cn2C
GI50 (786-0 renal): > 100 µM
TGI (786-0 renal): > 100 µM
GI50 (A498 renal): > 100 µM
TGI (A498 renal): > 100 µM
GI50 (A549 NSCLC): 18.4 µM
TGI (A549 NSCLC): > 100 µM
GI50 (ACHN renal): 3.74 µM
TGI (ACHN renal): 18.6 µM
GI50 (BT-549 breast): 5.11 µM
TGI (BT-549 breast): 18.2 µM
GI50 (CAKI-1 renal): 17.1 µM
TGI (CAKI-1 renal): > 100 µM
GI50 (CCRF-CEM leukemia): 6.46 µM
TGI (CCRF-CEM leukemia): 78.4 µM
GI50 (COLO 205 colon): 5.13 µM
TGI (COLO 205 colon): 31.1 µM
GI50 (DU-145 prostate): > 100 µM
TGI (DU-145 prostate): > 100 µM
GI50 (EKVX NSCLC): 5.48 µM
TGI (EKVX NSCLC): 23.4 µM
GI50 (HCT-116 colon): 88 µM
TGI (HCT-116 colon): > 100 µM
GI50 (HCT-15 colon): 4.22 µM
TGI (HCT-15 colon): 29.7 µM
GI50 (HL-60(TB) leukemia): 1.98 µM
TGI (HL-60(TB) leukemia): 5.2 µM
GI50 (HOP-62 NSCLC): > 100 µM
TGI (HOP-62 NSCLC): > 100 µM
GI50 (HOP-92 NSCLC): 1.03 µM
TGI (HOP-92 NSCLC): 10.3 µM
GI50 (HS 578T breast): 4.2 µM
TGI (HS 578T breast): 20.1 µM
GI50 (HT29 colon): 22 µM
TGI (HT29 colon): > 100 µM
GI50 (IGROV1 ovarian): 29.6 µM
TGI (IGROV1 ovarian): > 100 µM
GI50 (K-562 leukemia): 2.86 µM
TGI (K-562 leukemia): > 100 µM
GI50 (KM12 colon): 2.73 µM
TGI (KM12 colon): 7.08 µM
GI50 (LOX IMVI melanoma): 10.4 µM
TGI (LOX IMVI melanoma): > 100 µM
GI50 (M14 melanoma): 16.7 µM
TGI (M14 melanoma): > 100 µM
GI50 (MALME-3M melanoma): 52.8 µM
TGI (MALME-3M melanoma): > 100 µM
GI50 (MCF7 breast): 17.3 µM
TGI (MCF7 breast): > 100 µM
GI50 (MDA-MB-231 breast): 2.37 µM
TGI (MDA-MB-231 breast): 22.2 µM
GI50 (MDA-MB-435): 32.9 µM
TGI (MDA-MB-435): > 100 µM
GI50 (MOLT-4 leukemia): > 100 µM
TGI (MOLT-4 leukemia): > 100 µM
GI50 (NCI-H226 lung): 23.6 µM
TGI (NCI-H226 lung): > 100 µM
GI50 (NCI-H23 lung): 17.3 µM
TGI (NCI-H23 lung): > 100 µM
GI50 (NCI-H460 lung): 9.89 µM
TGI (NCI-H460 lung): > 100 µM
GI50 (NCI-H522 lung): 3.42 µM
TGI (NCI-H522 lung): 10 µM
GI50 (NCI/ADR-RES ovarian): 3.86 µM
TGI (NCI/ADR-RES ovarian): 16.6 µM
GI50 (OVCAR-3 ovarian): 8.51 µM
TGI (OVCAR-3 ovarian): 29.3 µM
GI50 (OVCAR-4 ovarian): 2.06 µM
TGI (OVCAR-4 ovarian): 4.08 µM
GI50 (OVCAR-5 ovarian): 2.79 µM
TGI (OVCAR-5 ovarian): 10.6 µM
GI50 (OVCAR-8 ovarian): 8.02 µM
TGI (OVCAR-8 ovarian): > 100 µM
GI50 (RPMI-8226 leukemia): 2.25 µM
TGI (RPMI-8226 leukemia): 5.07 µM
GI50 (RXF 393 renal): 10.4 µM
TGI (RXF 393 renal): 44 µM
GI50 (SF-268 CNS): 9.24 µM
TGI (SF-268 CNS): > 100 µM
GI50 (SF-295 CNS): 13.4 µM
TGI (SF-295 CNS): 62.6 µM
GI50 (SF-539 CNS): 2.47 µM
TGI (SF-539 CNS): 9.27 µM
GI50 (SK-MEL-2 melanoma): 2.13 µM
TGI (SK-MEL-2 melanoma): 5.28 µM
GI50 (SK-MEL-28 melanoma): 14 µM
TGI (SK-MEL-28 melanoma): 80.1 µM
GI50 (SK-MEL-5 melanoma): 10.4 µM
TGI (SK-MEL-5 melanoma): 22.8 µM
GI50 (SK-OV-3 ovarian): > 100 µM
TGI (SK-OV-3 ovarian): > 100 µM
GI50 (SN12C renal): 21.6 µM
TGI (SN12C renal): > 100 µM
GI50 (SNB-19 CNS): 29.8 µM
TGI (SNB-19 CNS): > 100 µM
GI50 (SNB-75 CNS): 13.6 µM
TGI (SNB-75 CNS): 53.7 µM
GI50 (SW-620 colon): 4.55 µM
TGI (SW-620 colon): 16.7 µM
GI50 (T-47D breast): 2.72 µM
TGI (T-47D breast): 11.4 µM
GI50 (TK-10 renal): 11 µM
TGI (TK-10 renal): > 100 µM
GI50 (U251 CNS): 3.66 µM
TGI (U251 CNS): 13.4 µM
GI50 (UACC-257 melanoma): 27 µM
TGI (UACC-257 melanoma): > 100 µM
GI50 (UACC-62 melanoma): 3.81 µM
TGI (UACC-62 melanoma): 15.9 µM
GI50 (UO-31 renal): 3.6 µM
TGI (UO-31 renal): 15 µM
